Measured values as given in patent US10669283B2, “Compound and pharmacologically acceptable salt thereof” (MEIJI SEIKA PHARMA CO., LTD., priority 2016, dated 2020).
pIC50: −log10 of the molar value. Like-named read-outs stand apart in the source and are kept apart here.

System: PDE4
Test: PDE4 inhibition, scintillation proximity assay (SPA);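 for PDE4 Inhibitory Activity (concentration for the inhibition rate of 50%): A below 100 nM B 100 to below 1000 nM C 1000 nM or more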
Format: biochemical
Summary of the method: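 Scintillation proximity read-out: [2,8-3H]-cAMP hydrolysis by PDE4 ran 120 min at room temperature in Tris-HCl pH 7.4 buffer with 8.3 mM MgCl2, 1.7 mM EGTA and 3 mg/mL BSA. Bead-bound product (YSi-SPA with ZnSO4, 15 min) counted; blank lacks enzyme, control has DMSO only.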

[1] = scintillation proximity assay (SPA), evaluated as classes A, B, C, read-out: PDE4 Inhibitory Activity (concentration for the inhibition rate of 50%)
[2] = scintillation proximity assay, class symbols, read-out: PDE4 Inhibitory Activity

SMILES | pIC50 [1] | pIC50 [2]
CCOC(c1ccc(-c2nccs2)c2oc(N3CC4CC(C3)N4)nc12)C(F)(F)F (centres unmarked) [Example 224, 2-(3,6-Diazabicyclo[3.1.1]heptan-3-yl)-4-(1-ethoxy-2,2,2-trifluoroethyl)-7-(thiazol-2-yl)benzo[d]oxazole] | > 7.00 | 
COC(C)c1ccc(-c2nccs2)c2oc(N3CC4CC(C3)N4)nc12 (centres unmarked) [Example 241, 2-(3,6-Diazabicyclo[3.1.1]heptan-3-yl)-4-(1-methoxyethyl)-7-(thiazol-2-yl)benzo[d]oxazole] | > 7.00 | 
COC(c1cc(-c2nccs2)c2oc(N3CC4CCC(C3)N4)nc2c1)C(F)F (centres unmarked) [Example 105, 2-(3,8-Diazabicyclo[3.2.1]octan-3-yl)-5-(2,2-difluoro-1-methoxyethyl)-7-(thiazol-2-yl)benzo[d]oxazole] | > 7.00 | 
CC(O)(c1ccc(-c2nccs2)c2oc(N3CC4CC(C3)N4)nc12)C(F)(F)F (centres unmarked) [Example 234, 2-(2-(3,6-Diazabicyclo[3.1.1]heptan-3-yl)-7-(thiazol-2-yl)benzo[d]oxazol-4-yl)-1,1,1-trifluoropropan-2-ol] | > 7.00 | 
c1csc(-c2ccc(OC3CCCOC3)c3nc(N4CC5CCC(C4)N5)oc23)n1 (centres unmarked) [Example 262, 2-(3,8-Diazabicyclo[3.2.1]octan-3-yl)-4-((tetrahydro-2H-pyran-3-yl)oxy)-7-(thiazol-2-yl)benzo[d]oxazole] | > 7.00 | 
CC(O)(c1ccc(-c2nccs2)c2oc(N3CC4CCC(C3)N4)nc12)C(F)(F)F (centres unmarked) [Example 236, 2-(2-(3,8-Diazabicyclo[3.2.1]octan-3-yl)-7-(thiazol-2-yl)benzo[d]oxazol-4-yl)-1,1,1-trifluoropropan-2-ol] | > 7.00 | 
CC(=O)c1cc(-c2nccs2)c2oc(N3CC4CCC(C3)N4)nc2c1 [Example 108, 1-(2-(3,8-Diazabicyclo[3.2.1]octan-3-yl)-7-(thiazol-2-yl)benzo[d]oxazol-5-yl)ethan-1-one] | > 7.00 | 
COCCOC(c1cc(-c2nccs2)c2oc(N3CC4CCC(C3)N4)nc2c1)C(F)(F)F (centres unmarked) [Example 147, 2-(3,8-Diazabicyclo[3.2.1]octan-3-yl)-7-(thiazol-2-yl)-5-(2,2,2-trifluoro-1-(2-methoxyethoxy)ethyl)benzo[d]oxazole] | > 7.00 | 
OC(c1cc(-c2cscn2)c2oc(N3CC4CCC(C3)N4)nc2c1OC(F)(F)F)C(F)F (centres unmarked) [Example 302, 1-(2-(3,8-Diazabicyclo[3.2.1]octan-3-yl)-7-(thiazol-4-yl)-4-(trifluoromethoxy)benzo[d]oxazol-5-yl)-2,2-difluoroethan-1-ol] | > 7.00 | 
ON1C2CC1CN(c1nc3c(OC(F)(F)F)ccc(-c4nccs4)c3o1)C2 [Example 380, 3-(7-(thiazol-2-yl)-4-(trifluoro-methoxy)benzo[d]oxazol-2-yl)-3,6-diazabicyclo [3.1.1]heptan-6-ol] |  | > 7.00
OC(c1cc(-c2cscn2)c2oc(N3CC4CC(C3)N4)nc2c1OC(F)(F)F)C(F)F (centres unmarked) [Example 301, 1-(2-(3,6-Diazabicyclo[3.1.1]heptan-3-yl)-7-(thiazol-4-yl)-4-(trifluoromethoxy)benzo[d]oxazol-5-yl)-2,2-difluoroethan-1-ol] | > 7.00 | 
COC(c1cc(-c2nccs2)c2oc(N3CC4CCC(C3)N4)nc2c1)C(F)(F)F (centres unmarked) [Example 143, 2-(3,8-Diazabicyclo[3.2.1]octan-3-yl)-7-(thiazol-2-yl)-5-(2,2,2-trifluoro-1-methoxyethyl)benzo[d]oxazole] | > 7.00 | 
O=S(=O)(c1ccc(-c2nccs2)c2oc(N3CC4CC(C3)N4)nc12)N1CCCC1 [Example 390, 2-(3,6-diazabicyclo[3.1.1]heptan-3-yl)-4-(pyrrolidin-1-yl-sulfonyl)-7-(thiazol-2-yl)benzo [d]oxazole] |  | > 7.00
COC(C)c1ccc(-c2nccs2)c2oc(N3CC4CCCC(C3)N4)nc12 (centres unmarked) [Example 243, 2-(3,9-Diazabicyclo[3.3.1]nonan-3-yl)-4-(1-methoxyethyl)-7-(thiazol-2-yl)benzo[d]oxazole] | > 7.00 | 
CC(C)C(O)C(F)(F)Oc1ccc(-c2nccs2)c2oc(N3CC4CC(C3)N4)nc12 (centres unmarked) [Example 362, 1-((2-(3,6-diazabicyclo [3.1.1]heptan-3-yl)-7-(thiazol-2-yl)benzo[d]oxazol-4-yl)oxy)-1,1-difluoro-3-methylbutan-2-ol] |  | > 7.00
CC(C)(O)c1cc(-c2nccs2)c2oc(N3CC4CCC(C3)N4O)nc2c1OC(F)(F)F [Example 368, 3-(5-(2-hydroxy-propan-2-yl)-7-(thiazol-2-yl)-4-(trifluoromethoxy)benzo[d]oxazol-2-yl)-3,8-diazabicyclo [3.2.1]octan-8-ol] |  | 6.00 to 7.00
Cc1ccc(-c2nccs2)c2oc(N3CC4CC(C3)N4)nc12 [Example 26, 2-(3,6-Diazabicyclo[3.1.1]heptan-3-yl)-4-methyl-7-(thiazol-2-yl)benzo[d]oxazole] | > 7.00 | 
COC(c1ccc(-c2nccs2)c2oc(N3CC4CC(C3)N4)nc12)C(F)F (centres unmarked) [Example 130, 2-(3,6-Diazabicyclo[3.1.1]heptan-3-yl)-4-(2,2-difluoro-1-methoxyethyl)-7-(thiazol-2-yl)benzo[d]oxazole] | > 7.00 | 

SMILES | pIC50 [1] | pIC50 [2]
FC(F)(F)COC(c1cc(-c2nccs2)c2oc(N3CC4CC(C3)N4)nc2c1)C(F)(F)F (centres unmarked) [Example 151, 2-(3,6-Diazabicyclo[3.1.1]heptan-3-yl)-7-(thiazol-2-yl)-5-(2,2,2-trifluoro-1-(2,2,2-trifluoroethoxy)ethyl)benzo[d]oxazole] | > 7.00 | 
CC(=O)c1cc(-c2nccs2)c2oc(N3CC4CC(C3)N4)nc2c1 [Example 109, 1-(2-(3,6-Diazabicyclo[3.1.1]heptan-3-yl)-7-(thiazol-2-yl)benzo[d]oxazol-5-yl)ethan-1-one] | > 7.00 | 
CS(=O)(=O)c1cc(-c2nccs2)c2oc(N3CC4CCC(C3)N4)nc2c1 [Example 45, 2-(3,8-Diazabicyclo[3.2.1]octan-3-yl)-5-(methylsulfonyl)-7-(thiazol-2-yl)benzo[d]oxazole] | > 7.00 | 
OC(c1cc(-c2cscn2)c2oc(N3CC4CC(C3)N4)nc2c1OC(F)(F)F)C(F)F (centres unmarked) [Example 300, 1-(2-(3,6-Diazabicyclo[3.1.1]heptan-3-yl)-7-(thiazol-4-yl)-4-(trifluoromethoxy)benzo[d]oxazol-5-yl)-2,2-difluoroethan-1-ol] | > 7.00 | 
CC(C)(O)C(C)(C)OC(c1ccc(-c2nccs2)c2oc(N3CC4CC(C3)N4)nc12)C(F)(F)F (centres unmarked) [Example 280, 3-(1-(2-(3,6-Diazabicyclo[3.1.1]heptan-3-yl)-7-(thiazol-2-yl)benzo[d]oxazol-4-yl)-2,2,2-trifluoroethoxy)-2,3-dimethylbutan-2-ol] | > 7.00 | 
C[C@H](O)COc1ccc(-c2nccs2)c2oc(N3CC4CC(C3)N4)nc12 [Example 260, (2S)-1-((2-(3,6-diazabicyclo[3.1.1]heptan-3-yl)-7-(thiazol-2-yl)benzo[d]oxazol-4-yl)oxy)propan-2-ol] | > 7.00 | 
COC1(COC(c2ccc(-c3nccs3)c3oc(N4CC5CC(C4)N5)nc23)C(F)(F)F)CC1 (centres unmarked) [Example 282, 2-(3,6-Diazabicyclo[3.1.1]heptan-3-yl)-7-(thiazol-2-yl)-4-(2,2,2-trifluoro-1-((1-methoxycyclopropyl)methoxy)ethyl)benzo[d]oxazole] | > 7.00 | 
OC1(c2cc(-c3nccs3)c3oc(N4CC5CC(C4)N5)nc3c2OC(F)(F)F)CC1 [Example 269, 1-(2-(3,6-Diazabicyclo[3.1.1]heptan-3-yl)-7-(thiazol-2-yl)-4-(trifluoromethoxy)benzo[d]oxazol-5-yl)cyclopropan-1-ol] | > 7.00 | 
FC(F)(F)c1ccc(-c2nccs2)c2oc(N3CC4CCC(C3)N4)nc12 [Example 31, 2-(3,8-Diazabicyclo[3.2.1]octan-3-yl)-7-(thiazol-2-yl)-4-(trifluoromethyl)benzo[d]oxazole] | > 7.00 | 
CC(O)(c1cc(-c2nccs2)c2oc(N3CC4CC(C3)N4)nc2c1)C(F)(F)F (centres unmarked) [Example 160, 2-(2-(3,6-Diazabicyclo[3.1.1]heptan-3-yl)-7-(thiazol-2-yl)benzo[d]oxazol-5-yl)-1,1,1-trifluoropropan-2-ol] | > 7.00 | 
FC(F)(F)c1c(Cl)cc(-n2cccn2)c2oc(N3CC4COCC(C3)N4)nc12 [Example 18, 7-(5-Chloro-7-(1H-pyrazol-1-yl)-4-(trifluoromethyl)benzo[d]oxazol-2-yl)-3-oxa-7,9-diazabicyclo[3.3.1]nonane] | 6.00 to 7.00 | 
CC(O)(c1ccc(-c2nccs2)c2oc(N3CC4CC(C3)N4)nc12)C(F)(F)F (centres unmarked) [Example 270, 2-(2-(3,6-Diazabicyclo[3.1.1]heptan-3-yl)-7-(thiazol-2-yl)benzo[d]oxazol-4-yl)-1,1,1-trifluoropropan-2-ol] | > 7.00 | 
OCC(F)(F)Oc1ccc(-c2cscn2)c2oc(N3CC4CCC(C3)N4)nc12 [Example 312, 2-((2-(3,8-Diazabicyclo[3.2.1]octan-3-yl)-7-(thiazol-4-yl)benzo[d]oxazol-4-yl)oxy)-2,2-difluoroethan-1-ol] | > 7.00 | 
CCOC(=O)c1cc(-n2cccn2)c2oc(N3CC4CCCC(C3)N4)nc2c1 [Example 93, Ethyl 2-(3,9-diazabicyclo[3.3.1]nonan-3-yl)-7-(1H-pyrazol-1-yl)benzo[d]oxazole-5-carboxylate] | 6.00 to 7.00 | 
OCc1ccc(-c2nccs2)c2oc(N3CC4CCCC(C3)N4)nc12 [Example 134, (2-(3,9-Diazabicyclo[3.3.1]nonan-3-yl)-7-(thiazol-2-yl)benzo[d]oxazol-4-yl)methanol] | > 7.00 | 
CC(O)(c1cc(-c2nccs2)c2oc(N3CC4CC(C3)N4)nc2c1OC(F)(F)F)C(F)(F)F (centres unmarked) [Example 216, 2-(2-(3,6-Diazabicyclo[3.1.1]heptan-3-yl)-7-(thiazol-2-yl)-4-(trifluoromethoxy)benzo[d]oxazol-5-yl)-1,1,1-trifluoropropan-2-ol] | > 7.00 | 
CC(C)(O)COC(c1ccc(-c2nccs2)c2oc(N3CC4CC(C3)N4)nc12)C(F)(F)F (centres unmarked) [Example 255] | > 7.00 | 
